Data reported in patent US8877815B2, “Substituted carbamoylcycloalkyl acetic acid derivatives as NEP” (Novartis AG, priority 2010, dated 2014).

Each compound was assayed against T1, recombinant human neutral endopeptidase (NEP, EC 3.4.24.11) (Homo sapiens, UniProt P08473) (assay: in vitro inhibition of recombinant human neutral endopeptidase (fluorescence lifetime assay)). Conditions: 1 hour pre-incubation, read after 1 hour at room temperature, pH 7.4, substrate Cys(PT14)-Arg-Arg-Leu-Trp-OH 0.7 μM.
T1 construct: made in house; host or cells: insect cells
T1 sequence (P08473 whole entry): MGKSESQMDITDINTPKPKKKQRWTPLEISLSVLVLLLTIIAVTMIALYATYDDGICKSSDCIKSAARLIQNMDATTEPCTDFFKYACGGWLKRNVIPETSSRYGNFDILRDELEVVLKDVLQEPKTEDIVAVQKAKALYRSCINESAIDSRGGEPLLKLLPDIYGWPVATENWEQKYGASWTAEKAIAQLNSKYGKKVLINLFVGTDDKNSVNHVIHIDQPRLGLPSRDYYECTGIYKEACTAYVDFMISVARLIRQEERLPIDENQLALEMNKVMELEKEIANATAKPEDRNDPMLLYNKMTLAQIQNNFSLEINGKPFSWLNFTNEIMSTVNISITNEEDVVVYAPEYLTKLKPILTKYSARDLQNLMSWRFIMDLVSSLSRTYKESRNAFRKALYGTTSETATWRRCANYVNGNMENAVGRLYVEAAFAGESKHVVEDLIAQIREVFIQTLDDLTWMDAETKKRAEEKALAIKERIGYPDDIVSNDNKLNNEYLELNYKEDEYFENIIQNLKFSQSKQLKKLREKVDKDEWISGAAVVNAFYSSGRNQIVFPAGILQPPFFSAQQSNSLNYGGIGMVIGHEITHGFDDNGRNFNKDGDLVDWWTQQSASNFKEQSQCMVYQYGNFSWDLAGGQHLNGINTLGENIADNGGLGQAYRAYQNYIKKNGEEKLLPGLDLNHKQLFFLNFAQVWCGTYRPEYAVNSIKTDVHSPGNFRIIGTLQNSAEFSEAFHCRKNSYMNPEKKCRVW
Type: biochemical
Text: The activity of a compound according to the present invention can be assessed by the following in vitro & in vivo methods and/or by the following in vitro & in vivo methods well-described in the art. See A fluorescence lifetime-based assay for protease inhibitor profiling on human kallikrein 7 Doering K, Meder G, Hinnenberger M, Woelcke J, Mayr L M, Hassiepen U Biomol Screen. 2009 January; 14(1):1-9.
In particular, the in vitro inhibition of recombinant human neutral endopeptidase (NEP, EC 3.4.24.11) can be determined as follows:
Recombinant human neutral endopeptidase (expressed in insect cells and purified using standard methods, final concentration 7 pM) is pre-incubated with test compounds at various concentrations for 1 hour at room temperature in 10 mM sodium phosphate buffer at pH 7.4, containing 150 mM NaCl and 0.05% (w/v) CHAPS. The enzymatic reaction is started by the addition of a synthetic peptide substrate Cys(PT14)-Arg-Arg-Leu-Trp-OH to a final concentration of 0.7 μM. Substrate hydrolysis leads to an increase fluorescence lifetime (FLT) of PT14 measured by the means of a FLT reader as described by Doering et al. (2009). The effect of the compound on the enzymatic activity was determined after 1 hour (t=60 min) incubation at room temperature. The IC50 values, corresponding to the inhibitor concentration showing 50% reduction of the FLT values measured in absence of inhibitor, are calculated from the plot of percentage of inhibition vs. inhibitor concentration using non-linear regression analysis software.

Q: How did the IC50 turn out when O=C(O)CC1(C(=O)N[C@@H](Cc2ccc(-c3ccccc3)cc2)C(=O)N2CCC[C@H]2C(=O)O)CCCC1 [Example 1-1, (S)-1-((S)-3-(biphenyl-4-yl)-2-(1-(carboxymethyl)cyclopentanecarboxamido)propanoyl)pyrrolidine-2-carboxylicacid] was run?
A: 12 nM

Q: Which IC50 does the source give for O=C(O)CC1(C(=O)N[C@@H](Cc2ccc(-c3ccccc3)cc2)C(=O)O)CCCC1 [Example 1-7] here?
A: 15 nM

Q: How did the IC50 turn out when O=C(O)CC1(C(=O)N[C@@H](Cc2ccc(-c3ccccc3Cl)cc2)c2nnn[nH]2)CCCC1 [Example 8-1] was run?
A: 6 nM

Q: Cc1cccc(-c2ccc(C[C@H](NC(=O)C3(CC(=O)O)CCCC3)c3nnn[nH]3)cc2)c1 [Example 9-1, (S)-2-(1-(2-(3′-methylbiphenyl-4-yl)-1-(1H-tetrazol-5-yl)ethylcarbamoyl)cyclopentyl)acetic acid] was tested. Which IC50 did it give?
A: 40 nM

Q: For COc1cccc(-c2ccc(C[C@H](NC(=O)C3(CC(=O)O)CCCC3)c3nnn[nH]3)cc2)c1 [Example 9-2], which IC50 is on record?
A: 11 nM

Q: Which IC50 does the source give for O=C(O)CC1(C(=O)N[C@@H](Cc2ccc(-c3ccccc3)cc2)c2nnn[nH]2)CCCC1 [Example 31-2, {1-[(S)-2-Biphenyl-4-yl-1-(1H-tetrazol-5-yl)-ethylcarbamoyl]-cyclopentyl}-acetic acid] here?
A: 10 nM
